Consider 16 molecules from PubChem BioAssay (NCI).

“And” between values parts separate entries of the source, which are not always exact repeats. Identical values can stand only once.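 Protocol summary: plate cells (96-well), add compound at 5 concentrations, incubate 48 h, interpolate endpoints linearly. Here, GI50 denotes the concentration required for 50% inhibition of growth. TGI: total growth inhibition.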

Among the test systems are NCI-H226 lung; LOX IMVI melanoma; HOP-92 NSCLC; KM12 colon; ACHN renal; OVCAR-5 ovarian; SF-268 CNS; RXF 393 renal; NCI/ADR-RES ovarian; MALME-3M melanoma.
Common to all, as to assay: NCI-60 cell line screen, 48 h

Take `O=C(OCC(OC(=O)c1ccccc1)C1CC(C(O)C2CCCCC2)C(=O)O1)c1ccccc1` (centres undefined): the TGI in the test with NCI-H226 lung, in the test with LOX IMVI melanoma, in the test on HOP-92 NSCLC, in the test with KM12 colon, in the test on ACHN renal and in the test on OVCAR-5 ovarian was above 100 µM throughout. In addition, the TGI in the test on SF-268 CNS, in the test on RXF 393 renal and with NCI/ADR-RES ovarian was above 100 µM in each case.
Regarding `O=C1CSC2=NC3=C(COC/C3=C\c3ccc(F)cc3)C(c3ccc(F)cc3)N12` (centres undefined), the TGI with NCI-H226 lung, with LOX IMVI melanoma, in the test on HOP-92 NSCLC, in the test on KM12 colon, in the test on ACHN renal and in the test with OVCAR-5 ovarian was above 100 µM throughout. For the same molecule, the TGI in the test with SF-268 CNS, with RXF 393 renal and with NCI/ADR-RES ovarian was above 100 µM in each case.
On to `CC1CN=C(N(C(=O)Nc2ccccc2)C2CCCCC2)S1` (centres undefined), for which the TGI in the test on LOX IMVI melanoma is 27.1 µM; in the test on MALME-3M melanoma, 32 µM; in the test on KM12 colon, 36.3 µM; with ACHN renal it was 26.3 µM; in the test on OVCAR-5 ovarian, 28.9 µM; in the test with SF-268 CNS, 46 µM. This molecule came in with a TGI in the test on NCI/ADR-RES ovarian of 33.3 µM.
In the case of `C=C1CC2C[C@H](OS(=O)(=O)c3ccc(C)cc3)C(C1)N2C` (some centres undefined), the TGI in the test on NCI-H226 lung, in the test on LOX IMVI melanoma, with MALME-3M melanoma, in the test with KM12 colon, in the test on SF-268 CNS and with RXF 393 renal was above 100 µM throughout. The molecule further registered a TGI in the test on NCI/ADR-RES ovarian above 100 µM.
Turning to `S=C1NNC(=S)NN1`, the TGI in the test on NCI-H226 lung is above 1 µM; in the test on LOX IMVI melanoma it was 0.328 µM; in the test with HOP-92 NSCLC, above 1 µM; with MALME-3M melanoma, above 1 µM; in the test on KM12 colon, above 1 µM; in the test with ACHN renal it was above 1 µM. Also, the TGI with SF-268 CNS and in the test with NCI/ADR-RES ovarian was above 1 µM each time.
On to `CC1=CCC(=O)[C@]2(C)C(CC(=O)O)[C@]3(C)C4=C(C)C(c5ccoc5)C[C@@H]4O[C@@H]3[C@H](O)[C@@H]12` (some centres undefined), for which the TGI in the test on LOX IMVI melanoma, in the test on HOP-92 NSCLC, with MALME-3M melanoma, in the test with KM12 colon, in the test with ACHN renal and in the test on OVCAR-5 ovarian was above 100 µM in each case. The TGI with SF-268 CNS and in the test with NCI/ADR-RES ovarian was above 100 µM in each case.
Take `O=c1cc(-c2ccccc2)[nH]c2c(F)ccc(F)c12`: the TGI is above 100 µM with NCI-H226 lung; above 100 µM with LOX IMVI melanoma; above 100 µM in the test with HOP-92 NSCLC; 96.3 µM with MALME-3M melanoma; above 100 µM in the test on KM12 colon; above 100 µM with ACHN renal. The TGI in the test on OVCAR-5 ovarian, with SF-268 CNS and with RXF 393 renal was above 100 µM throughout.
As for `O=C(c1cccs1)N(C(=O)N1CCCCC1)c1ccccc1`, the TGI in the test on NCI-H226 lung, with LOX IMVI melanoma, in the test with MALME-3M melanoma, in the test on KM12 colon, in the test with ACHN renal and in the test with SF-268 CNS was above 100 µM each time. Moreover, the TGI in the test with RXF 393 renal and in the test on NCI/ADR-RES ovarian was above 100 µM throughout.
Consider `Oc1[nH]c2ccccc2c1N=NC(=S)NCc1ccccn1`, for which the TGI in the test on NCI-H226 lung came out at 10.5 µM; in the test on LOX IMVI melanoma, 15.3 µM; in the test with HOP-92 NSCLC it was 18.1 µM; in the test with MALME-3M melanoma it was 17.9 µM; in the test with KM12 colon, 19.6 µM; in the test with ACHN renal, 2.25 µM. For the same molecule, the TGI with OVCAR-5 ovarian was 22.7 µM; in the test on SF-268 CNS, 3.84 µM; with NCI/ADR-RES ovarian it was above 23.3 µM.
Turning to `COc1cccc2c1C(=O)c1c(O)c3c(c(O)c1C2=O)C[C@@](O)(C(=O)CO)CC3OC1CC(NCCCCC(OC(C)=O)OC(C)=O)C(O)C(C)O1` (some centres undefined), the TGI in the test on NCI-H226 lung is 0.00568 µM; in the test with LOX IMVI melanoma it was 0.00829 µM and 0.0302 µM; in the test on HOP-92 NSCLC, 0.00682 µM and 0.0079 µM; in the test with KM12 colon, 0.00774 µM and 0.022 µM; in the test with ACHN renal it was 0.0057 µM; in the test on OVCAR-5 ovarian it was above 1 µM. Moreover, the TGI with RXF 393 renal was 0.00356 µM and 0.00642 µM. Also, the GI50 in the test on LOX IMVI melanoma was 0.000488 µM; with HOP-92 NSCLC it was 0.00286 µM; with RXF 393 renal, 0.00269 µM.
With `c1ccc(C2C3=C(CCCC3)Nc3nnnn32)cc1` (centres undefined), the TGI was above 100 µM with LOX IMVI melanoma; above 100 µM with KM12 colon; above 100 µM in the test with ACHN renal; above 100 µM in the test on OVCAR-5 ovarian; 90.8 µM in the test on SF-268 CNS; 27.8 µM with RXF 393 renal. In addition, in the test on NCI/ADR-RES ovarian, the TGI was above 100 µM.
As for `NC(=O)c1nnc2c(F)cccc2c1N`, the TGI in the test on NCI-H226 lung, with LOX IMVI melanoma, in the test on MALME-3M melanoma, in the test on KM12 colon, in the test on ACHN renal and in the test on OVCAR-5 ovarian was above 100 µM in each case. The TGI in the test with SF-268 CNS and in the test on NCI/ADR-RES ovarian was above 100 µM in each case.
Take `N#Cc1nc(C(=O)c2ccccc2)oc1N`: the TGI in the test with LOX IMVI melanoma, in the test with HOP-92 NSCLC, in the test on KM12 colon, in the test on ACHN renal, in the test on OVCAR-5 ovarian and in the test on SF-268 CNS was above 100 µM in each case.
Regarding `C/C(=N/OCCC(=O)O)C1CC1`, the TGI in the test on NCI-H226 lung, in the test with LOX IMVI melanoma, with HOP-92 NSCLC, with MALME-3M melanoma, in the test with KM12 colon and in the test with ACHN renal was above 100 µM in each case. For the same molecule, the TGI in the test on SF-268 CNS and in the test on RXF 393 renal was above 100 µM each time.
Take `O=C1/C(=C/Cc2ccco2)N=C(c2ccccc2)N1c1nc2c(Cl)cc(Cl)cc2s1`: the TGI is above 100 µM in the test with LOX IMVI melanoma; 87.4 µM in the test on HOP-92 NSCLC; above 100 µM in the test with KM12 colon; 74.6 µM with ACHN renal; above 100 µM in the test with OVCAR-5 ovarian; 89.2 µM in the test with SF-268 CNS. For the same molecule, the TGI is 40.6 µM in the test with RXF 393 renal and 84.5 µM in the test with NCI/ADR-RES ovarian.
As to `C/C(=N\Nc1nc2ccccc2n1C)c1ccncn1`, the TGI is above 45.7 µM with NCI-H226 lung; 2.64 µM in the test on HOP-92 NSCLC; above 100 µM with MALME-3M melanoma; 30.7 µM in the test on KM12 colon; 30.9 µM with ACHN renal; above 100 µM with OVCAR-5 ovarian. Besides, the TGI is above 100 µM with SF-268 CNS and 0.458 µM in the test on NCI/ADR-RES ovarian.
